{
  "source": "patent US6376666B1",
  "about": "(Nauchno-Issledovatelsky Institut Farmakologii Rossiiskoi …, priority 1994, dated 2002)",
  "system": "outbred male rats",
  "assay": "conflict Vogel test (punished licking of water)",
  "format": "in vivo",
  "details": "M ± mx",
  "experimental": "The study of anxiolytic activity of chosen compounds was carried out in the experiments with outbred male rats weighing 180-200 g in standard conflict Vogel' procedure [Voronina T. A. et al., in: “Phenazepam”, Naukova Dumka, Kiev, 1982, p.89, 93, 146]. The main aim of the initial step of experiments was the training of rats to develop the feeling of thirst with following experience of water licking from bottle in the experimental chamber. The animals were deprived of water for 24 hours and were placed in the test chamber for 5-min adaptation period during which they had free access to the drinking bottle. After another 24 h deprivation period the rats were placed again in the test chamber and were allowed to drink water for 5 sec. Immediately afterwards drinking attempts were punished by electric shock (0,5 mA). Under this collision of drinking and protective reflexes the extremal situation was developed. In this situation the anxiety of punishment prevented the licking process. The number of shocks received throughout a 5-min experimental session was recorded.",
  "data": [
    {"molecule": "CCOc1ccc2nc(SCCN3CCOCC3)[nH]c2c1", "note": "[XII, 2-[2-(Morpholino)ethylthio]-5-ethoxybenzimidazole]", "values": [
      {"measurement": "number of punished lickings (shocks received in 5-min session)", "setting": "1.0 mg/kg i.p.", "value": "15.3 ± 3.4"},
      {"measurement": "number of punished lickings (shocks received in 5-min session)", "setting": "5.0 mg/kg i.p.", "value": "19.0 ± 2.5"},
      {"measurement": "number of punished lickings (shocks received in 5-min session)", "setting": "10.0 mg/kg i.p.", "value": "15.4 ± 2.5"},
      {"measurement": "number of punished lickings (shocks received in 5-min session)", "setting": "20.0 mg/kg i.p.", "value": "28.0 ± 5.8"}
    ]}
  ]
}
